Data as given in patent US9109001B2, “3′,5′-cyclic phosphoramidate prodrugs for HCV infection” (priority 2012, dated 2015).
Where two headings read alike, the source gives them in different places.

Legend:
[1] = Stability in human intestinal S9 (HIS9); type: in vitro ADME; conditions: 10 μM, 1.0 mg/mL protein, NADPH, 60 min; percent unchanged
Protocol: Stability in Liver and Intestinal Subcellular Fractions: Stability of test compounds were determined in subcellular fractions (microsomes and S9) of human liver and intestine in duplicate for each matrix. Pooled liver and intestinal microsomal, intestinal and liver S9 proteins (1.0 mg/mL), suspended in incubation buffer (100 mM potassium phosphate, pH 7.4, 5 mM MgCl2, and 0.1 mM EDTA), were preincubated for 5 min at 37° C. with 10 μM of a test compound from a 10 mM stock solution in DMSO (final DMSO concentration was 0.1%); the reaction was initiated by the addition of NADPH (3 mM final concentration). At specific times (0 and 60 min), 0.1 mL samples were taken and the reaction terminated by the addition of 4 volumes of stop solution (acetonitrile with 500 ng/mL carbutamide as an internal standard). The samples were vortexed for 30 sec and then centrifuged at 16,000 g for 10 min. 100 μL of supernatants were transferred to 96 deep-well plates preloaded with 100 μL distilled water and analyzed after mixing by LC-MS/MS. The MS peak area ratio of the test compound versus the internal standard was calculated and percent unchanged test compound over 60 minutes was calculated using this ratio.

mouse hepatocytes = assay: Release of active metabolite in mouse hepatocytes; type: in vitro ADME; conditions: 10 μM
Protocol: Assay for the Release of Active Metabolite in Primary Hepatocytes: Plates of fresh human and mouse hepatocytes were obtained on ice. The medium was removed and replaced with hepatocyte culture medium (William's E supplemented with penicillin-streptomycin, 1% L-glutamine, 1% insulin-transferrin-selenium and 0.1 μM Dexamethasone (Invitrogen) or with Invitro GRO HI medium complemented with Torpedo antibiotics (Celsis)). Cells were left overnight in an incubator at 37° C. to acclimatize to culture and the medium.
Hepatocyte incubations were conducted at a final volume of 0.5 mL hepatocyte culture medium/well (0.8 million cells/well for human and 0.5 million cells/well for mouse; 12 well plate no overlay, collagen coat). Culture medium from overnight incubation of cells was removed and replaced with fresh medium, pre-warmed to 37° C., containing 10 μM of test compound from a stock solution in DMSO (final DMSO concentration was 0.1%). At each specific time point, incubation medium was removed and cell monolayers were carefully washed two times with ice-cold PBS. Following the last wash, all PBS was carefully removed and 1.0 mL of extraction solution (ice-cold 70% methanol/30% water) added. Cells were scraped off and suspended in the extraction solution, transferred to 2 mL polypropylene microfuge tubes and intracellular contents extracted overnight at −20° C.
After the overnight treatment the cellular extracts were prepared by centrifugation at 16,000×g for 10 min to remove cellular debris. The remaining sample was then dried using a refrigerated centrivap concentrator. Dry extracts were reconstituted in 1000 μL of HPLC-grade water and centrifuged at 16,000×g for 10 min. Aliquots (100 μL each) of the supernatant were transferred into a 96 well plate and internal standard (4 ng/mL final concentration) was added as the internal standard (IS) for LC-MS/MS analysis.
The incubation time points were 6, 24 and 48 hours for human hepatocytes and 1, 4, 8, 12 and 24 hours for mouse hepatocytes.

HCV genotype 1b replicon = assay: HCV Replicon Assay; type: cell-based; conditions: Zluc (Huh-7-derived) cells, HCV genotype 1b replicon, luciferase reporter, 72 hours, read-out: HCV Replicon EC50
Protocol: Huh-7-derived cell line (Zluc) that harbors an HCV genotype 1b replicon and a luciferase reporter gene was grown in Dulbecco's Modified Eagle Medium (DMEM) supplemented with 10% fetal bovine serum, 2 mM GlutaMAX, 1% MEM nonessential amino acids, 100 IU/mL penicillin, 100 μg/mL streptomycin, and 0.5 mg/mL Geneticin® (G418). For dose response testing the cells were seeded in 96-well plates at 7.5×10^3 cells per well in a volume of 50 μL, and incubated at 37° C./5% CO2. Drug solutions were made up freshly in Huh-7 media as 2× stocks. Ten additional 5-fold dilutions were prepared from these stocks in DMEM without G418. At least three hours after Zluc cells were seeded, drug treatment was initiated by adding 50 μL of drug dilutions to the plates in duplicate. Final concentrations of drug ranged from 100 μM to […]. Cells were then incubated at 37° C./5% CO2. Alternatively, compounds were tested at two concentrations (1 μM and 10 μM). […] For this, media was removed from the plates via gentle tapping. Fifty microliters of ONE-glo luciferase assay reagent was added to each well. The plates were shaken gently for 3 min at room temperature and luminescence was measured on a Victor^3 V 1420 multilabel counter (Perkin Elmer) with a 1 second read time using a 700 nm cut-off filter. The EC50 values were calculated from dose response curves from the resulting best-fit equations determined by Microsoft Excel and XLfit 4.1 software. When screening at two fixed concentrations, the results were expressed as % inhibition at 1 μM and 10 μM.

[2] = Stability in fresh human whole blood; type: in vitro ADME; conditions: 0.5 μM, percent unchanged test compound
Protocol: Stability in Fresh Whole Blood: Stability of test compounds were determined in fresh human whole blood with K2EDTA as the anticoagulant (stored refrigerated at 2-8° C. and used within 7 days of receipt). The experiment was conducted with three replicates for each time point. Whole blood, pre-incubated at 37° C. for 10-15 minutes, was fortified with a solution of test compound for a final concentration of 0.5 μM and mixed for 30 sec. At intervals (0, 0.5, 1 and 2 hr), three 50-μL aliquots were combined with 200 μL (each) of an ice-cold solution of the internal standard (carbutamide 500 ng/mL in acetonitrile). The samples were vortexed for 30 sec and then centrifuged at 16,100 g for 5 min. The supernatant was analyzed by LC-MS/MS. The MS peak area ratio of the test compound versus the internal standard was calculated and percent unchanged test compound was calculated for each time point using this ratio.

[3] = Stability in simulated gastric fluid; type: in vitro ADME; conditions: 100 μM, 2 hours at 37° C.; percent of peak area at time zero
Protocol: Stability in Simulated Gastric and Intestinal Fluids: Simulated gastric and intestinal fluids containing pepsin and pancreatin respectively were prepared according to the U.S. Pharmacopoeia USP291 procedure (www.pharmacopeia.cn/v29240/usp29nf24s0_ris1s126.html). Test compound (final concentration 100 μM) was incubated in duplicate in the appropriate fluid for 2 hours at 37° C. The samples were quenched with 200 μl cold acetonitrile, vortexed for 30 seconds and then centrifuged at 16,100 g for 10 min. The supernatants were analyzed by HPLC on a C-18 column with UV detection at 252 nm. The time 0 samples were prepared by adding SGF or SIF fluid to the quenching solvent followed by the test compound. Stability of the compound was determined by peak area the test compound after incubation and calculated as percent of the peak area observed at time zero.

Row | Compound | Stability HIS9 (1 hr) [1] [%] | MsH AUC (pmol · hr/mill cells) (mouse hepatocytes) | MsH Cmax (pmol/mill cells) (mouse hepatocytes) | EC50 (HCV genotype 1b replicon; Hepatitis C virus, 72 h) [nM] | Stability WB_Human (37° C.; 2 hr) [2] [%] | Stability SGF [3] [%] | EC50 (HCV genotype 1b replicon) [nM]
1 | CCOc1nc(N)nc2c1ncn2[C@@H]1O[C@@H]2COP(=O)(N[C@@H](C)C(=O)OC(C)C)O[C@H]2[C@@]1(C)F (single isomer, unassigned) [Compound 1 Diastereomer 1] | 84 | 4700 | 2296 | 250 to 1000 | 87 | 87 | –
2 | CCOc1nc(N)nc2c1ncn2[C@@H]1O[C@@H]2COP(=O)(N[C@@H](C)C(=O)OC(C)C)O[C@H]2[C@@]1(C)F (single isomer, unassigned) [Compound 1 Diastereomer 2] | 96 | 1451 | 884 | – | 67 | 83 | < 250
